According to PubChem BioAssay (NCI):
“And” between values parts separate entries of the source, which are not always exact repeats. Equal entries are not always repeated.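 These data come from cells grown in 96-well plates and exposed to compound for 48 hours at five concentrations. The concentration for 50% growth inhibition is given as GI50. TGI denotes the concentration required for complete inhibition of growth.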

Columns and labels:
Test in all cases: NCI tumour cell line growth inhibition, 48 h
[1] = tested on: HCT-15 colon
[2] = tested on: HOP-92 NSCLC
[3] = tested on: SN12C renal
[4] = tested on: OVCAR-4 ovarian
[5] = tested on: HL-60(TB) leukemia
[6] = tested on: UO-31 renal
[7] = tested on: HCT-116 colon
[8] = tested on: IGROV1 ovarian
[9] = tested on: SR leukemia
[10] = tested on: RXF 393 renal

| Structure (SMILES) | GI50 [1] | TGI [1] [µM] | GI50 [2] | TGI [2] [µM] | GI50 [3] | TGI [3] [µM] | GI50 [4] [µM] | TGI [4] [µM] | GI50 [5] | TGI [5] | GI50 [6] | TGI [6] [µM] | GI50 [7] | TGI [7] [µM] | GI50 [8] | TGI [8] [µM] | GI50 [9] | TGI [9] [µM] | GI50 [10] [µM] | TGI [10] [µM] |
| --- | --- | --- | --- | --- | --- | --- | --- | --- | --- | --- | --- | --- | --- | --- | --- | --- | --- | --- | --- | --- |
| COc1cc(OC)c(/C=C/c2c3ccccc3cc[n+]2C)c(OC)c1 | 24.7 µM | > 100 | 1.8 µM | 12.4 | 2.31 µM | 18.6 | 1.15 | > 100 | 0.811 µM | 7.32 µM | 18.5 µM | > 100 | 1.4 µM | 13.5 | 2.32 µM | 19.8 | 2 µM | 41.2 | 4.99 | > 51.3 |
| c1ccc2c(c1)c1c(c3ccccc32)CN2CCCC2C1 (stereo unspecified) | – | > 70.4 | – | 13.4 | – | 14.9 | – | > 100 | – | 4.21 µM | – | 11.8 | – | 14.7 | – | 12 | – | > 100 | – | 9.02 |
| CC(C)(S)C(N)C(=O)O (stereo unspecified) | 1950 µM | > 5000 | 2960 µM | > 5000 | > 5000 µM | > 5000 | > 5000 | > 5000 | 3640 µM | > 5000 µM | > 5000 µM | > 5000 | 1860 µM | > 5000 | – | > 100 | 1840 µM | > 5000 | > 5000 | > 5000 |
| O=C(Nc1ccc(-n2ccc3c(NC(=O)c4ccccc4)nccc32)cc1)Nc1ccc(Cl)c(Cl)c1 | 0.201 µM | 2.84 | 1.23 µM | 4.61 | 2.01 µM | 9.08 | 1.55 | 3.86 | 1.25 µM | 4.22 µM | 1.6 µM | 4.1 | 0.488 µM | 1.74 | 1.76 µM | 11 | 0.132 µM | 0.932 | 0.624 | 1.96 |
| CCCCCOc1ccc(/C=N/Nc2cc(C)nc3ccc(Br)cc23)cc1 | 1.57 µM | 3.13 | 1.36 µM | 2.88 | 1.72 µM | 3.27 | 1.76 | 3.27 | 1.91 µM | 3.78 µM | 1.57 µM | 3 | 1.78 µM | 3.36 | 1.72 µM | 3.37 | 0.448 µM | 2.15 | 1.67 | 3.19 |
| CCCOc1ccc2sc(NC(=O)OC)nc2c1 | 0.611 µM | > 100 | 3.38 µM | > 100 | 6.2 µM | > 100 | > 100 | > 100 | 0.616 µM | 5.24 µM | 6.07 µM | > 100 | 1.06 µM | > 100 | – | > 100 | 0.36 µM | > 100 | 2.71 | > 29.3 |
| CC(C)N(CCn1c2c3ccccc3ccc2c2oc(=O)c3ccccc3c21)C(C)C | – | > 100 | – | > 92.3 | – | > 100 | – | > 100 | – | > 100 µM | – | > 100 | – | > 100 | – | > 100 | – | > 100 | – | > 100 |
| O=C(O)c1ccc(OCc2ccccc2)c(Cl)c1 | – | > 100 | – | > 100 | – | > 100 | – | > 100 | – | > 100 µM | – | > 100 | – | > 100 | – | > 100 | – | > 100 | – | > 100 |
| O=[N+]([O-])c1ccc(N2N=C(c3ccc(NCc4nc5ccccc5[nH]4)cc3)CC2c2ccco2)cc1 (stereo unspecified) | – | 84.9 | – | > 100 | – | 61.9 | – | 64.8 | – | 48.9 µM | – | 55.4 | – | 57.3 | – | > 100 | – | 33.8 | – | > 100 |
| COC(=O)[C@@H](C)C[C@H](Cc1ccccc1)NC(=O)c1csc([C@@H](C[C@H](C(C)C)N(C)C(=O)[C@@H](NC(=O)[C@H]2CCCCN2C)C2CCCCC2)OC(C)=O)n1 | 0.00102 µM and 0.0025 µM | > 25 | 0.000977 µM and 0.0025 µM | 0.0112 | 0.0041 µM and 0.0025 µM | 8.9 | – | > 25 | 0.000306 µM and < 0.0025 µM | 0.00159 µM and < 0.0025 µM | 0.00684 µM and 0.0415 µM | 7.76 | 0.000325 µM and 0.0025 µM | 0.00325 | 0.000631 µM and 0.0025 µM | > 25 | 0.000274 µM and 0.0025 µM | 2.9 | 0.00103 | – |
| Cc1cc(C)c(/C=C2\C(=O)Nc3ccc(NC(=O)CCCCCCC(=O)NO)cc32)[nH]1 | > 100 µM | > 100 | 0.47 µM | > 100 | > 20.4 µM | > 100 | 8.34 | > 100 | 0.506 µM | > 100 µM | > 100 µM | > 100 | 0.3 µM | 4.86 | 2.86 µM | > 100 | 0.416 µM | > 100 | 1.17 | > 75.2 |
| O=C1OCC2C1C1c3ccccc3C(O)c3ccccc3C21 (stereo unspecified) | – | > 100 | – | > 100 | – | > 100 | – | > 100 | – | > 100 µM | – | > 100 | – | > 100 | – | > 100 | – | > 100 | – | > 100 |
| C=C1C(=O)OC2CC(C)C3(O)CCC(=O)C3(C)CC12 (stereo unspecified) | – | 28.1 | – | > 100 | – | 48.8 | – | 40.2 | – | 39.2 µM | – | > 100 | – | 99.4 | – | 82.6 | – | 57 | – | 79.7 |
